Where two headings read alike, the source gives them in different places.
Tests used:
plasmin = plasmin (Homo sapiens, UniProt P00747); assay: Enzyme inhibition, TAME hydrolysis, plasmin (method of Muramatsu et al.); type: biochemical; settings: read-out: ID50, plasmin
Description: (§1) The enzyme inhibitory activity was determined according to the method of Muramatsu et al. [M. Muramatsu, T. Onishi, S. Makino, Y. Hayashi and S. Fujii, J. Biochem., 58, 214 (1965)]. The data summarized in Table 1 are expressed in terms of molar concentration (ID50) of the test compound which inhibits 50% of the activity of each enzyme to hydrolyze TAME (tosylarginine methyl ester).

Clr = target: T1, Clr (Homo sapiens, UniProt P00736); assay: Anti-Cl esterase activity, Clr (AAME hydrolysis, method of Okamura et al.); type: biochemical; settings: read-out: Anti-C1 activity, Clr (ID50)
T1 sequence (P00736 464-705 limits assumed): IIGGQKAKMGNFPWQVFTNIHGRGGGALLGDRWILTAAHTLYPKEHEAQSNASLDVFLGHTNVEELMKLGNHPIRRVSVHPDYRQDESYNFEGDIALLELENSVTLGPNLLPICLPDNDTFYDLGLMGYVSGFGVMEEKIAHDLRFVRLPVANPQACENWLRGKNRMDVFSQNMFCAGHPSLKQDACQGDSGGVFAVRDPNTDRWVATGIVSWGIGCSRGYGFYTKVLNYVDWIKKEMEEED
T1 sequence (P00736 18-463 partner limits assumed): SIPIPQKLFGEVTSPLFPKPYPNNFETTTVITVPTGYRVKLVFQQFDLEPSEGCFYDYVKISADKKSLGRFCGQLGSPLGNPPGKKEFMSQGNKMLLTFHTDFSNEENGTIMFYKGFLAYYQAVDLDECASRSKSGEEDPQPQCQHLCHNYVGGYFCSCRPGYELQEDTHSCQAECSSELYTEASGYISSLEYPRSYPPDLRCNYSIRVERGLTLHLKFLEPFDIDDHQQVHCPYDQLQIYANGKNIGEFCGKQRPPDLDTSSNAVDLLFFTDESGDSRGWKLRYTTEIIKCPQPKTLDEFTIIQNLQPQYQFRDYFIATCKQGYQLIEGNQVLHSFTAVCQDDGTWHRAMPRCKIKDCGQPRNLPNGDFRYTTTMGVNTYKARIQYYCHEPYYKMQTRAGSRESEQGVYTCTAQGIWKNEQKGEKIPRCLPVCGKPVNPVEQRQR
Description: (§2) The anti-Cl esterase (Clr, Cls) activity was determined according to the method of Okamura et al. [K. Okamura, M. Muramatsu and S. Fujii, Biochem. Biophys. Acta, 295, 252-257 (1973)]. The inhibition of complement mediated hemolysis (percent) was determined according to the method of Baker et al. [B. R. Baker and E. H. Erickson, J. Med. Chem., 12, 408-414 (1969)]. The figures in Table 2 have the following meanings:
Clr: Molar concentration of the test compound which inhibits 50% of the ability of Clr to hydrolyse AAME (acetylarginin methyl ester) (ID50).

[1] = Toxicity, lethal dose (LD50); settings: mouse, in vivo
thrombin = thrombin (Bos taurus, UniProt P00735); assay: Enzyme inhibition, TAME hydrolysis, thrombin (method of Muramatsu et al.); type: biochemical
Description: as §1

[2] = system: complement mediated hemolysis; assay: Inhibition of complement mediated hemolysis (method of Baker et al.); type: cell-based
trypsin = target: T2, trypsin (Bos taurus, UniProt P00760); assay: Enzyme inhibition, TAME hydrolysis, trypsin (method of Muramatsu et al.); type: biochemical; settings: hydrolysis of TAME; read-out: ID50, trypsin
T2 sequence (P00760 24-246): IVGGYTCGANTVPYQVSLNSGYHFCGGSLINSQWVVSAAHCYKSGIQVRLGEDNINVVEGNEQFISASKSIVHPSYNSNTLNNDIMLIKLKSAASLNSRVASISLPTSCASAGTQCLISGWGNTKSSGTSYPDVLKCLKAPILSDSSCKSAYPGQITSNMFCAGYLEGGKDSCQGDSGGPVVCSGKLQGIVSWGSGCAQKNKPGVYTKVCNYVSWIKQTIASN
Description: as §1

kallikrein = assay: Enzyme inhibition, TAME hydrolysis, kallikrein (method of Muramatsu et al.); type: biochemical; settings: read-out: ID50, kallikrein
Description: as §1

Cls = target: T3, Cls (Homo sapiens, UniProt P09871); assay: Anti-Cl esterase activity, Cls (ATEE hydrolysis, method of Okamura et al.); type: biochemical; settings: read-out: Anti-C1 activity, Cls (ID50)
T3 sequence (P09871 438-688 limits assumed): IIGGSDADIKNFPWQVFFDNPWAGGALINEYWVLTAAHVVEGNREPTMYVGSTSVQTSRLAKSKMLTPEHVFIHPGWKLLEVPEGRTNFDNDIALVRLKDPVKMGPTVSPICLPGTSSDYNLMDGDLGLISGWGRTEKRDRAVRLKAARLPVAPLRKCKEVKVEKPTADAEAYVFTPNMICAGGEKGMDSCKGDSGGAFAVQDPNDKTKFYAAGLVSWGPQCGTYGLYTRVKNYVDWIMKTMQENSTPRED
T3 sequence (P09871 16-437 partner limits assumed): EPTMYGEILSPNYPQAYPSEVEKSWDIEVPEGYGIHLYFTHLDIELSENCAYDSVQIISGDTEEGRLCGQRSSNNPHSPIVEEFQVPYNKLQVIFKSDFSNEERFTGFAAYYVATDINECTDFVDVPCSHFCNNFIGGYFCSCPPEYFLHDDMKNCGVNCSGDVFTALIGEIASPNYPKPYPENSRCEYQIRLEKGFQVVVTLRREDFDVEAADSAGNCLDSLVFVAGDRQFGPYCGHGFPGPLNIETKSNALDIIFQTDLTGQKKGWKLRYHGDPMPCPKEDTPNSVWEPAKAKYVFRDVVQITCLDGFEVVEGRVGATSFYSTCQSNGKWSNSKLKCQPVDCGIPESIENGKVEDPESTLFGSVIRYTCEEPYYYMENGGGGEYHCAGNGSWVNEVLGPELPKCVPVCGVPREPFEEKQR
Description: as §2
Cls: Molar concentration of the test compound which inhibits 50% of the ability of Cls to hydrolyse ATEE (acetyltyrosin ethyl ester) (ID50).

Chain of plasmin (P00747 581-810 limits assumed): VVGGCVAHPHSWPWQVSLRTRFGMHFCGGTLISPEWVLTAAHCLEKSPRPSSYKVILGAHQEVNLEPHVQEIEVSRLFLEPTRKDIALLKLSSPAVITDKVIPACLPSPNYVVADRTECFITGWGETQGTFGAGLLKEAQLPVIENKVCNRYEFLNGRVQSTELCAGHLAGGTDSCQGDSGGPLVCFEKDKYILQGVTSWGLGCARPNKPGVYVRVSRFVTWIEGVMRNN
Chain of plasmin (P00747 97-580 partner limits assumed): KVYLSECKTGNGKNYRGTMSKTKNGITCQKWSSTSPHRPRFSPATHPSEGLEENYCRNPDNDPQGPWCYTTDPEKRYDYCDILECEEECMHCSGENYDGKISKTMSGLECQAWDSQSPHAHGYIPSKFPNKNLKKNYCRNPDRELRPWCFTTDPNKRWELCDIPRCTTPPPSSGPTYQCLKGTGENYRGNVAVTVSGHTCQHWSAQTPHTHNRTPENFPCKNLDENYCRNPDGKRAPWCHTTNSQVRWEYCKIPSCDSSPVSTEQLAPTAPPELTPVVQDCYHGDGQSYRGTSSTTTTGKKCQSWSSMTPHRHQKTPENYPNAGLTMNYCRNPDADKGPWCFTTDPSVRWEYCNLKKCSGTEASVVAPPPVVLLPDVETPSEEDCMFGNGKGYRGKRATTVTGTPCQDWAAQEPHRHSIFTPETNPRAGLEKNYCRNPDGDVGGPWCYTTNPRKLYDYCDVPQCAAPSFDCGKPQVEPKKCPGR

| inhibition at 10 µM (thrombin; 1×10^-5 M, hydrolysis of TAME, read-out: percentage inhibition, thrombin (figure in parentheses)) [%] | SMILES | IC50 (plasmin) [µM] | IC50 (Clr) [µM] | LD50 ([1]; ip, read-out: LD50 Mouse IP) [mg/kg] | LD50 ([1]; po, read-out: LD50 Mouse PO) [mg/kg] | IC50 (thrombin) [µM] | Inhibition of complement mediated hemolysis (%) ([2]; concentration 1 × 10^-4) | Inhibition of complement mediated hemolysis (%) ([2]; concentration 1 × 10^-5) | Inhibition of complement mediated hemolysis (%) ([2]; concentration 1 × 10^-6) | Inhibition of complement mediated hemolysis (%) ([2]; concentration 1 × 10^-7) | IC50 (trypsin) [µM] | IC50 (kallikrein) [µM] | IC50 (Cls) [µM] |
| --- | --- | --- | --- | --- | --- | --- | --- | --- | --- | --- | --- | --- | --- |
|  | CC(=O)Oc1ccc2cc(C(=N)N)ccc2c1 [Compound No. 1, 6-amidino-2-naphthyl acetate] | 200 | 10 | 200 | 2500 | 400 | 86 | 15 | 0 | 0 | 80 | 500 | 20 |
|  | CCCC(=O)Oc1ccc2cc(C(=N)N)ccc2c1 [Compound No. 2, 6-amidino-2-naphthyl n-butyrate] | 30 | 9 | 200 | 2500 | 20 | 96 | 40 | 1 | 0 | 20 | 700 | 20 |
|  | CC(C)CC(=O)Oc1ccc2cc(C(=N)N)ccc2c1 [Compound No. 3, 6-amidino-2-naphthyl isovalerate] | 30 | 2 |  |  | 80 | 95 | 37 | 0 | 0 | 30 | 500 | 2 |
| 26 | CCCCCCCCCC(=O)Oc1ccc2cc(C(=N)N)ccc2c1 [Compound No. 5, 6-amidino-2-naphthyl caprate] | 10 |  |  |  |  |  |  |  |  | 6 | 100 |  |
|  | CCCCCCCCCCCC(=O)Oc1ccc2cc(C(=N)N)ccc2c1 [Compound No. 6, 6-amidino-2-naphthyl laurate] |  |  |  |  |  | 13 | 13 | 27 | 15 |  |  |  |
|  | C/C=C/C=C/C(=O)Oc1ccc2cc(C(=N)N)ccc2c1 [Compound No. 9, 6-amidino-2-naphthyl sorbate] |  |  |  |  |  | 94 | 89 | 37 | 14 |  |  |  |
|  | N=C(N)c1ccc2cc(OC(=O)C3CC3)ccc2c1 [Compound No. 10, 6-amidino-2-naphthyl cyclopropanecarboxylate] | 4 | 0.2 |  |  | 3 | 100 | 92 | 18 | 0 | 2 | 100 | 0.3 |
|  | N=C(N)c1ccc2cc(OC(=O)C3CCCCC3)ccc2c1 [Compound No. 12, 6-amidino-2-naphthylcyclohexanecarboxylate] | 10 | 2 |  |  | 40 | 45 | 10 | 11 | 0 | 20 | > 10 | 3 |
|  | N=C(N)c1ccc2cc(OC(=O)CC3C=CCC3)ccc2c1 (centres unmarked) [Compound No. 13, 6-amidino-2-naphthyl 2-cyclopenteneacetate] |  |  |  |  |  | 39 | 21 | 10 | 10 |  |  |  |
|  | N=C(N)c1ccc2cc(OC(=O)CCCC3CCCCC3)ccc2c1 [Compound No. 15, 6-amidino-2-naphthyl 4-cyclohexylbutyrate] |  |  |  |  | > 10 |  |  |  |  |  | > 10 |  |
|  | N=C(N)c1ccc2cc(OC(=O)CCCCCNC(=O)OCc3ccccc3)ccc2c1 [Compound No. 16, 6-amidino-2-naphthyl ε-benzyloxycarbonylaminocaproate] | 3 | 4 |  |  | 100 | 92 | 15 | 0 | 0 | 10 | 40 | 4 |
|  | N=C(N)c1ccc2cc(OC(=O)CCCCCN)ccc2c1 [Compound No. 17, 6-amidino-2-naphthyl ε-aminocaproate] | 40 |  |  |  | 600 |  |  |  |  | 200 | 50 |  |
|  | N=C(N)NCCCCCC(=O)Oc1ccc2cc(C(=N)N)ccc2c1 [Compound No. 18, 6-amidino-2-naphthyl ε-guanidinocaproate] | 30 | 70 |  |  | 40 | 92 | 30 | 3 | 0 | 10 | > 10 | 9 |
|  | CCCCCC(=O)Oc1ccc2cc(C(=N)N)ccc2c1 [compound 4, 6-amidino-2-naphthyl caproate] | 20 | 5 |  |  | 3000 | 83 | 12 | 5 | 0 | 20 | 300 | 4 |
|  | N=C(N)c1ccc2cc(OC(=O)[C@H]3CC[C@H](CNC(=O)OCc4ccccc4)CC3)ccc2c1 [compound 19, 6-amidino-2-naphtyl trans-4-benzyloxycarbonylaminomethylcyclohexanecarboxylate] | 0.8 | 0.4 |  |  | 30 | 55 | 88 | 25 | 6 | 1 | 6 | 0.4 |

From US4496584A, “Amidine derivatives with anti-complement activity” (Torii & Co. Ltd., priority 1981, dated 1985)
